# Results taken from PubChem BioAssay (NCI).
# Values joined by “and” are separate entries in the source; they are usually repeats but may differ in a detail not shown here. Equal entries are not always repeated.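 Each compound was tested at five concentrations against cells in 96-well plates for 48 hours. GI50 is the concentration that inhibits growth by half. TGI: total growth inhibition.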
# Experiments:
# Assay in all cases: NCI-60 cell line screen, 48 h
# BT-549 breast = tested on: BT-549 breast
# EKVX NSCLC = tested on: EKVX NSCLC
# HCT-116 colon = tested on: HCT-116 colon
# HCT-15 colon = tested on: HCT-15 colon
# HOP-92 NSCLC = tested on: HOP-92 NSCLC
# LOX IMVI melanoma = tested on: LOX IMVI melanoma
# MOLT-4 leukemia = tested on: MOLT-4 leukemia
# SK-MEL-28 melanoma = tested on: SK-MEL-28 melanoma
# SNB-75 CNS = tested on: SNB-75 CNS
# SR leukemia = tested on: SR leukemia
SMILES,TGI (BT-549 breast),TGI (EKVX NSCLC),TGI (HCT-116 colon),TGI (HCT-15 colon),TGI (HOP-92 NSCLC),TGI (LOX IMVI melanoma),TGI (MOLT-4 leukemia) [µM],TGI (SK-MEL-28 melanoma),TGI (SNB-75 CNS),TGI (SR leukemia) [µM],GI50 (EKVX NSCLC),GI50 (HCT-15 colon),GI50 (HOP-92 NSCLC),GI50 (SK-MEL-28 melanoma),GI50 (SR leukemia)
COC(=O)C(/C(=N/NC(N)=O)C(=O)Nc1ccc(C)cc1)c1nc2ccc([N+](=O)[O-])cc2[nH]c1=O (stereo not given),> 100 µM,> 100 µM,> 100 µM,> 100 µM,> 100 µM,> 100 µM,> 100,> 100 µM,> 100 µM,> 100,–,–,–,–,–
CCOc1cc(NC(C)=O)ccc1C(=O)NNC(=O)c1ccccc1OC(C)=O,> 100 µM,> 70.4 µM,> 36.8 µM,> 100 µM,> 100 µM,> 100 µM,> 40.5,> 100 µM,> 38.7 µM,> 34.7,–,–,–,–,–
Nc1cc(CO)cc(Nc2nc3ccc(Cl)cc3c3[nH]c4ccccc4c23)c1,24.6 µM,15.1 µM,25.4 µM,18.6 µM,9.11 µM,–,32.2,–,–,7.33,–,–,–,–,–
CCCCN1C(=O)CC2[C@@H]3CCc4cc(OC(C)=O)ccc4C3CC[C@]2(C)C1=O (stereo not given in full),> 10 µM,> 10 µM,> 10 µM,> 10 µM,> 10 µM,> 10 µM,> 10,> 10 µM,–,> 10,–,–,–,–,–
OCC1CCCCCCCCCCC12SCCCS2 (stereo not given),> 100 µM,> 100 µM,> 100 µM,> 100 µM,> 100 µM,> 100 µM,> 100,> 100 µM,> 100 µM,> 100,–,–,–,–,–
COc1ccccc1Nc1nc(N)nc(N)c1N=O,> 100 µM,> 100 µM,> 100 µM,> 100 µM,> 100 µM,> 100 µM,> 100,> 100 µM,> 100 µM,> 100,–,–,–,–,–
CC(=O)OCC1OC(OC(C)(C)CC/C=C(\C)[C@@H]2C/C=C(\C)CC/C=C(\C)CC2)C(O)C(O)C1OC(C)=O (stereo not given in full),88.6 µM and 34.8 µM,> 100 µM and 37.3 µM,> 60.1 µM and 60.9 µM,> 100 µM and 29.2 µM,> 100 µM and 35 µM,33.5 µM and 54.1 µM,49.1,> 100 µM and 40.6 µM,> 100 µM and 31.8 µM,> 100,43.6 µM and 19 µM,49.4 µM and 14.2 µM,> 81.2 µM and 17.5 µM,> 100 µM and 21.7 µM,36.3 µM and > 100 µM
COc1cccc2c(N)c3cccc(C(=O)NCCN(C)C)c3nc12,4.95 µM,1.09 µM,0.726 µM,21.2 µM,1.3 µM,0.472 µM,0.264,3.17 µM,0.362 µM,1.12,–,–,–,–,–
Cc1nc2c(sc(=S)n2-c2ccccc2)c2nc3ncccc3n12,> 100 µM,> 100 µM,> 100 µM,> 100 µM,> 100 µM,> 100 µM,> 100,> 100 µM,64.5 µM,> 100,–,–,–,–,–
COc1ccc(-n2c(=O)c3[nH]cnc3n(-c3ccc(OC)cc3)c2=S)cc1,> 100 µM,> 100 µM,> 100 µM,> 100 µM,> 100 µM,> 100 µM,> 100,> 100 µM,> 100 µM,> 100,–,–,–,–,–
Brc1ccc(CCNCCN2CCCCC2)cc1,29.4 µM,> 100 µM,24.4 µM,33.6 µM,23.5 µM,27.6 µM,> 100,24.1 µM,26.3 µM,> 100,–,–,–,–,–
CC(C)(N=NC(C)(C)C(=O)NCCO)C(=O)NCCO,> 100 µM,> 100 µM,> 100 µM,> 100 µM,> 100 µM,> 100 µM,> 100,> 100 µM,–,> 100,–,–,–,–,–
Nc1ccc2nc(-c3ccccn3)c(-c3ccccn3)nc2c1,> 100 µM,> 100 µM,> 100 µM,> 100 µM,> 100 µM,> 100 µM,> 100,> 100 µM,> 100 µM,> 100,–,–,–,–,–
O=C(O)c1cc2c(cc1CC(Cc1ccc3c(c1)CCC3)C(=O)O)CCC2 (stereo not given),> 100 µM,> 100 µM,> 100 µM,> 100 µM,> 100 µM,> 100 µM,> 100,> 100 µM,> 100 µM,> 100,–,–,–,–,–
CN(CCC#N)c1ccc(/C=C2\SC(=S)NC2=O)cc1,79.2 µM,> 100 µM,> 100 µM,> 100 µM,> 100 µM,36.2 µM,> 100,> 100 µM,> 100 µM,> 100,–,–,–,–,–
O=C1/C(=C/c2ccccc2)N=C(c2ccccc2)N1n1c(-c2ccccc2)nc2ccccc2c1=O,> 100 µM,> 100 µM,> 100 µM,> 100 µM,> 100 µM,> 100 µM,> 100,> 100 µM,> 100 µM,> 100,–,–,–,–,–
OC1C2[C@@H](O)CCCN2C[C@@H](O)[C@H]1O (stereo not given in full),> 100 µM,> 100 µM,> 100 µM,> 100 µM,> 100 µM,> 100 µM,> 100,> 100 µM,> 100 µM,> 100,–,–,–,–,–
